Data: PubChem BioAssay AID1787 (Sanford-Burnham Center for Chemical Genomics, 2009)
The source made the active and inactive calls. The rule behind the calls is not given here.

Tested on: MDA-MB-435 cytotoxicity with TRAIL, ATPlite luminescence, 24 h
Experiment: PubChem AID 1787

**Q.** CSc1nc(-c2ccc(C)cc2)nc(C(Cl)Cl)n1 was tested. Which cytotoxicity (TRAIL alone cytotoxicity, dose or concentration not given here) did it give?
**A.** Its cytotoxicity is 42%.

**Q.** And the cytotoxicity with TRAIL (at 30 µM (top of the series))?
**A.** The cytotoxicity with TRAIL was 92 (inactive).

**Q.** And the cytotoxicity (compound alone cytotoxicity series, at 30 µM, stronger effect = higher value)?
**A.** The cytotoxicity was 8%.
